Results on 17 compounds are retold here after ChEMBL document CHEMBL4346729, “The discovery of novel 3-aryl-indazole derivatives as peripherally restricted pan-Trk inhibitors for the treatment of pain” (Bioorg Med Chem Lett, 2019).

Each structure is given as a SMILES string. Converted amounts (≈) assume the structure as drawn. The source made the active and inactive calls. The rule behind the calls is not given here.

Series [1] is described as follows: Intrinsic clearance in human liver microsomes. Particulars: read-out: CLH. Type of series: ADME, Microsome.
A short description of series [2]: Apparent permeability from apical to basolateral side in MDCK cells at 50 umol/L at pH 7.4 incubated for 30 mins by LC-MS/MS analysis. Format: ADME, cell-based, Canis lupus familiaris. To be noted: dog.
A short description of series [3]: Solubility of test compound. Type of series: physicochemical.
The subject of a further series is Rattus norvegicus. In words: Antinociceptive activity in CFA induced thermal hypersensitivity Sprague-Dawley rat model assessed as increase in paw withdrawal latency at 100 mg/kg, po after 1 hr. Format: functional, organism-based.
Series [4] is described as follows: Apparent permeability from apical to basolateral side in MDCK cells at 50 umol/L at pH 6.5 incubated for 30 mins by LC-MS/MS analysis. Type of series: ADME, cell-based, Canis lupus familiaris. Particulars: dog.

Consider `c1ccc(CNc2ccc3[nH]nc(-c4ccc(N5CCNCC5)nc4)c3c2)cc1`, for which the CLint scaled in series [1] worked out at 12 mL/min/kg. In addition, the Papp A→B at 0.5 h, 50 µM in series [2] was 13 ×10⁻⁶ cm/s.
As for `CS(=O)(=O)c1ccc(F)cc1CNc1ccc2[nH]nc(-c3cccnc3)c2c1`, the CLint scaled in series [1] came to 793 mL/min/kg. For the same compound, the apical-to-basolateral permeability (Papp A→B) at 0.5 h, 50 µM in series [2] was 61.5 ×10⁻⁶ cm/s. Also, the solubility in series [3] was found to be 23 µM (≈ 9.12 µg/mL).
Turning to `CC(C)Cc1ccc(C(C)C(=O)O)cc1` (stereo unspecified), in the series on Rattus norvegicus, the outcome was Active.
On to `c1ccc(CCc2ccc3[nH]nc(-c4ccc(N5CCNCC5)nc4)c3c2)cc1`, for which, in series [1], the CLint scaled came to 2730 mL/min/kg. Also, the Papp A→B at 0.5 h, 50 µM in series [2] turned out to be 3.1 ×10⁻⁶ cm/s.
As to `CC(C)(Nc1ccc2[nH]nc(-c3ccc(N4CCNCC4)nc3)c2c1)c1ccccc1`, the CLint scaled in series [1] is 1740 mL/min/kg. Moreover, the Papp A→B at 0.5 h, 50 µM in series [2] stood at 11 ×10⁻⁶ cm/s.
As for `CS(=O)(=O)c1ccc(F)cc1CNc1ccc2[nH]nc(-c3ccccn3)c2c1`, the CLint scaled in series [1] is 443 mL/min/kg. Also, the Papp A→B at 0.5 h, 50 µM in series [2] turned out to be 73.2 ×10⁻⁶ cm/s. This compound yielded a solubility in series [3] of 15.2 µM (≈ 6.03 µg/mL).
Regarding `CS(=O)(=O)c1ccc(F)cc1CNc1ccc2[nH]nc(-c3ccc(N4CCNCC4)nc3)c2c1`, in series [1], the CLint scaled is 176 to 178 mL/min/kg. The figures for the Papp A→B at 0.5 h, 50 µM in series [2] and in series [4] were 0.3 to 0.4 ×10⁻⁶ cm/s and 0.3 ×10⁻⁶ cm/s, respectively. In addition, the solubility in series [3] came to 38.7 µM (≈ 18.6 µg/mL).
In the case of `COc1cncc(-c2n[nH]c3ccc(NCc4ccccc4NS(C)(=O)=O)cc23)c1`, the CLint scaled in series [1] turned out to be 217 mL/min/kg.
Same read-out and setting: the value for `COc1ccc(-c2n[nH]c3ccc(NCc4ccccc4NS(C)(=O)=O)cc23)cn1` was 359 mL/min/kg.
`CS(=O)(=O)Nc1ccccc1CNc1ccc2[nH]nc(-c3ccc(OC4CCNCC4)nc3)c2c1`: the CLint scaled in series [1] was determined as 323 mL/min/kg. The apical-to-basolateral permeability (Papp A→B) at 0.5 h, 50 µM in series [2] was 0.3 ×10⁻⁶ cm/s.
For `CS(=O)(=O)Nc1ccccc1CNc1ccc2[nH]nc(-c3ccc(NC4CCNCC4)nc3)c2c1`, in that order: 184 mL/min/kg and 0.3 ×10⁻⁶ cm/s.
Turning to `CS(=O)(=O)c1ccccc1CNc1ccc2[nH]nc(-c3ccc(N4CCNCC4)nc3)c2c1`, the CLint scaled in series [1] amounted to 74 mL/min/kg. The Papp A→B at 0.5 h, 50 µM stood at 12.5 ×10⁻⁶ cm/s in series [2] and 0.4 ×10⁻⁶ cm/s in series [4].
`COc1cccc(-c2n[nH]c3ccc(NCc4ccccc4NS(C)(=O)=O)cc23)n1`: the CLint scaled in series [1] came out at 833 mL/min/kg.
As for `c1ccc(COc2ccc3[nH]nc(-c4ccc(N5CCNCC5)nc4)c3c2)cc1`, in series [1], the CLint scaled turned out to be 694 mL/min/kg. Besides, the apical-to-basolateral permeability (Papp A→B) at 0.5 h, 50 µM in series [2] was 9.6 ×10⁻⁶ cm/s.
In the same order, the values of `CN(Cc1ccccc1)c1ccc2[nH]nc(-c3ccc(N4CCNCC4)nc3)c2c1` are 417 mL/min/kg and 7.3 ×10⁻⁶ cm/s.
Regarding `CS(=O)(=O)Nc1ccccc1CNc1ccc2[nH]nc(-c3ccc(N4CCNCC4)nc3)c2c1`, in series [1], the CLint scaled lay within 69.5 to 70 mL/min/kg. The apical-to-basolateral permeability (Papp A→B) at 0.5 h, 50 µM in series [2] was 1.2 ×10⁻⁶ cm/s.
For `Cn1ccc(-c2n[nH]c3ccc(NCc4cc(F)ccc4S(C)(=O)=O)cc23)n1`, the CLint scaled in series [1] stood at 137 mL/min/kg. In addition, the apical-to-basolateral permeability (Papp A→B) at 0.5 h, 50 µM in series [2] came out at 34 ×10⁻⁶ cm/s. In series [3], this compound returned a solubility of 80.1 µM (≈ 32 µg/mL).
